In US12030904B2 (priority 2020, dated 2024):
Like-named read-outs stand apart in the source and are kept apart here.

How the values were obtained:
[1] = system: Recombinant Respiratory Syncytial virus strain A2 containing the firefly luciferase reporter (RSV-Fluc); experiment: microbe, parasite or virus in culture; format: cell-based; conditions: human respiratory syncytial virus, NHBE
[2] = system: SARS-CoV-2; experiment: microbe, parasite or virus in culture; format: cell-based; conditions: Severe acute respiratory syndrome coronavirus 2, read-out: SARS EC50
[3] = MT4 cytotoxicity (CC50); conditions: human, MT4 cells
[4] = 72 h, read-out: RSV-Fluc EC50 (NHBE), NHBE cells, three days, Table 2

SMILES: CCCCCCCCCCCCCCCCCCOC[C@H](COP(=O)(O)OC[C@H]1O[C@@](C#N)(c2ccc3c(N)ncnn23)[C@H](O)[C@@H]1O)OCc1cc(F)cc(C(F)(F)F)c1 [Example 19, ((2R,3S,4R,5R)-5-(4-aminopyrrolo[2,1-f][1,2,4]triazin-7-yl)-5-cyano-3,4-dihydroxytetrahydrofuran-2-yl)methyl ((R)-2-((3-fluoro-5-(trifluoromethyl)benzyl)oxy)-3-(octadecyloxy)propyl) hydrogen phosphate]
- EC50 [1, 4]: 180 nM
- EC50 ([1]; read-out: RSV EC50, Table 2a): 182 nM
- EC50 [2]: 2800 nM
- CC50 ([3]; MT4 CC50, Table 2a): 541 nM

SMILES: CCCCCCCCCCCCCCCCCCOC[C@H](COP(=O)(O)OC[C@H]1O[C@@](C#N)(c2ccc3c(N)ncnn23)[C@H](O)[C@@H]1O)OCc1ccc(F)c(C#N)c1 [Example 98, [(2R,3S,4R,5R)-5-(4-aminopyrrolo[2,1-f][1,2,4]triazin-7-yl)-5-cyano-3,4-dihydroxy-tetrahydrofuran-2-yl]methyl [(2R)-2-[(3-cyano-4-fluoro-phenyl)methoxy]-3-octadecoxy-propyl] hydrogen phosphate]
- EC50 ([1]; read-out: RSV EC50, Table 4): 1000 nM
- EC50 [2]: 1300 nM
- CC50 ([3]; MT4 CC50, Table 4): 8980 nM

SMILES: CCCCCCCCCCCCCCCCOC[C@H](COP(=O)(O)OC[C@H]1O[C@@](C#N)(c2ccc3c(N)ncnn23)[C@H](O)[C@@H]1O)OCc1cccc(C#N)c1 [Example 95, ((2R,3S,4R,5R)-5-(4-aminopyrrolo[2,1-f][1,2,4]triazin-7-yl)-5-cyano-3,4-dihydroxytetrahydrofuran-2-yl)methyl ((R)-2-((3-cyanobenzyl)oxy)-3-(hexadecyloxy)propyl) hydrogen phosphate]
- EC50 ([1]; read-out: RSV EC50, Table 4): 20 nM
- EC50 [2]: 37 nM
- CC50 ([3]; MT4 CC50, Table 4): 252 nM

SMILES: CCCCCCCCCCCCCCCCCCOC[C@H](COP(=O)(O)OC[C@H]1O[C@@](C#N)(c2ccc3c(N)ncnn23)[C@H](O)[C@@H]1O)OC(C)c1ccccc1 (single isomer, unassigned) [Example 27]
- EC50 [1, 4]: 110 nM
- EC50 ([1]; read-out: RSV EC50, Table 2a): 113 nM
- EC50 [2]: 2000 nM
- CC50 ([3]; MT4 CC50, Table 2a): 614 nM

SMILES: CCCCCCCCCCCCCCCCCCOCC(COc1ccccc1)COP(=O)(O)OC[C@H]1O[C@@](C#N)(c2ccc3c(N)ncnn23)[C@H](O)[C@@H]1O (stereo partly drawn) [Example 29, ((2R,3S,4R,5R)-5-(4-aminopyrrolo[2,1-f][1,2,4]triazin-7-yl)-5-cyano-3,4-dihydroxytetrahydrofuran-2-yl)methyl (3-(octadecyloxy)-2-(phenoxymethyl)propyl) hydrogen phosphate]
- EC50 [1, 4]: 140 nM
- EC50 ([1]; read-out: RSV EC50, Table 2a): 140 nM
- EC50 [2]: 3330 nM
- CC50 ([3]; MT4 CC50, Table 2a): 6160 nM

SMILES: CCCCCCCCCCCCCCCCCCOC[C@H](COP(=O)(O)OC[C@H]1O[C@@](C#N)(c2ccc3c(N)ncnn23)[C@H](O)[C@@H]1O)Oc1cccc(C#N)c1 [Example 30, ((2R,3S,4R,5R)-5-(4-aminopyrrolo[2,1-f][1,2,4]triazin-7-yl)-5-cyano-3,4-dihydroxytetrahydrofuran-2-yl)methyl ((R)-2-(3-cyanophenoxy)-3-(octadecyloxy)propyl) hydrogen phosphate]
- EC50 [1, 4]: 17 nM
- EC50 ([1]; read-out: RSV EC50, Table 2a): 17 nM
- EC50 [2]: 97 nM
- CC50 ([3]; MT4 CC50, Table 2a): 188 nM

SMILES: CCCCCCCCCCCCCCCCCCOC[C@H](COP(=O)(O)OC[C@H]1O[C@@](C#N)(c2ccc3c(N)ncnn23)[C@H](O)[C@@H]1O)OCc1ccc(Cl)cc1Cl [Example 62, ((2R,3S,4R,5R)-5-(4-aminopyrrolo[2,1-f][1,2,4]triazin-7-yl)-5-cyano-3,4-dihydroxytetrahydrofuran-2-yl)methyl ((R)-2-((2,4-dichlorobenzyl)oxy)-3-(octadecyloxy)propyl) hydrogen phosphate]
- EC50 [1, 4]: 220 nM
- EC50 ([1]; read-out: RSV EC50, Table 2a): 217 nM
- EC50 [2]: 8620 nM
- CC50 ([3]; MT4 CC50, Table 2a): 12600 nM

SMILES: CCCCCCCCCCCCCCCCOC[C@H](COP(=O)(O)OC[C@H]1O[C@@](C#N)(c2ccc3c(N)ncnn23)[C@H](O)[C@@H]1O)OCc1ccc(C#N)c(F)c1 [Example 113, [(2R,3S,4R,5R)-5-(4-aminopyrrolo[2,1-f][1,2,4]triazin-7-yl)-5-cyano-3,4-dihydroxy-tetrahydrofuran-2-yl]methyl [(2R)-2-[(4-cyano-3-fluoro-phenyl)methoxy]-3-hexadecoxy-propyl] hydrogen phosphate]
- EC50 ([1]; read-out: RSV EC50, Table 4): 210 nM
- EC50 [2]: 1100 nM
- CC50 ([3]; MT4 CC50, Table 4): 5450 nM

SMILES: CCCCCCCCCCCCCCCCCCOC[C@H](COP(=O)(O)OC[C@H]1O[C@@](C#N)(c2ccc3c(N)ncnn23)[C@H](O)[C@@H]1O)OCc1c(F)cccc1F [Example 43, ((2R,3S,4R,5R)-5-(4-aminopyrrolo[2,1-f][1,2,4]triazin-7-yl)-5-cyano-3,4-dihydroxytetrahydrofuran-2-yl)methyl ((R)-2-((2,6-difluorobenzyl)oxy)-3-(octadecyloxy)propyl) hydrogen phosphate]
- EC50 [1, 4]: 68 nM
- EC50 ([1]; read-out: RSV EC50, Table 2a): 68 nM
- EC50 [2]: 139 nM
- CC50 ([3]; MT4 CC50, Table 2a): 1470 nM

SMILES: CCCCCCCCCCCCCCCCCCOC[C@H](COP(=O)(O)OC[C@H]1O[C@@](C#N)(c2ccc3c(N)ncnn23)[C@H](O)[C@@H]1O)Oc1cnc(C#N)nc1 [Example 82, ((2R,3S,4R,5R)-5-(4-aminopyrrolo[2,1-f][1,2,4]triazin-7-yl)-5-cyano-3,4-dihydroxytetrahydrofuran-2-yl)methyl ((R)-2-((2-cyanopyrimidin-5-yl)oxy)-3-(octadecyloxy)propyl) hydrogen phosphate]
- EC50 ([1]; read-out: RSV EC50, Table 4): 10 nM
- EC50 [2]: 120 nM
- CC50 ([3]; MT4 CC50, Table 4): 324 nM

SMILES: CCCCCCCCCCCCCCCCCCOC[C@H](COP(=O)(O)OC[C@H]1O[C@@](C#N)(c2ccc3c(N)ncnn23)[C@H](O)[C@@H]1O)Oc1cc(F)cc(C#N)c1 [Example 31, ((2R,3S,4R,5R)-5-(4-aminopyrrolo[2,1-f][1,2,4]triazin-7-yl)-5-cyano-3,4-dihydroxytetrahydrofuran-2-yl)methyl ((R)-2-(3-cyano-5-fluorophenoxy)-3-(octadecyloxy)propyl) hydrogen phosphate]
- EC50 ([1]; read-out: RSV EC50, Table 2a): 21 nM
- EC50 [2]: 86 nM
- CC50 ([3]; MT4 CC50, Table 2a): 195 nM

SMILES: CCCCCCCCCCCCCCCCCCOC[C@H](COP(=O)(O)OC[C@H]1O[C@@](C#N)(c2ccc3c(N)ncnn23)[C@H](O)[C@@H]1O)OCc1ccc(C#N)cc1OC [Example 114, [(2R,3S,4R,5R)-5-(4-Aminopyrrolo[2,1-f][1,2,4]triazin-7-yl)-5-cyano-3,4-dihydroxy-tetrahydrofuran-2-yl]methyl [(2R)-2-[(4-cyano-2-methoxy-phenyl)methoxy]-3-octadecoxy-propyl] hydrogen phosphate]
- EC50 ([1]; read-out: RSV EC50, Table 4): 93 nM
- EC50 [2]: 480 nM
- CC50 ([3]; MT4 CC50, Table 4): 1880 nM

SMILES: CCCCCCCCCCCCCCCCCCOC[C@H](COP(=O)(O)OC[C@H]1O[C@@](C#N)(c2ccc3c(N)ncnn23)[C@H](O)[C@@H]1O)Oc1cccc(C#N)n1 [Example 100, [(2R,3S,4R,5R)-5-(4-aminopyrrolo[2,1-f][1,2,4]triazin-7-yl)-5-cyano-3,4-dihydroxy-tetrahydrofuran-2-yl]methyl [(2R)-2-[(6-cyano-2-pyridyl)oxy]-3-octadecoxy-propyl]hydrogen phosphate]
- EC50 ([1]; read-out: RSV EC50, Table 4): 58 nM
- EC50 [2]: 340 nM
- CC50 ([3]; MT4 CC50, Table 4): 1180 nM

SMILES: CCCCCCCCCCCCCCCCCCOC[C@H](COP(=O)(O)OC[C@H]1O[C@@](C#N)(c2ccc3c(N)ncnn23)[C@H](O)[C@@H]1O)OCc1ccc(C#N)nc1 [Example 116, [(2R,3S,4R,5R)-5-(4-aminopyrrolo[2,1-f][1,2,4]triazin-7-yl)-5-cyano-3,4-dihydroxy-tetrahydrofuran-2-yl]methyl [(2R)-2-[(6-cyano-3-pyridyl)methoxy]-3-octadecoxy-propyl] hydrogen phosphate]
- EC50 ([1]; read-out: RSV EC50, Table 4): 26 nM
- EC50 [2]: 170 nM
- CC50 ([3]; MT4 CC50, Table 4): 690 nM

SMILES: CCCCCCCC/C=C/CCCCCCCCOC[C@H](COP(=O)(O)OC[C@H]1O[C@@](C#N)(c2ccc3c(N)ncnn23)[C@H](O)[C@@H]1O)OCc1ccc(C#N)cc1F [Example 127, ((2R,3S,4R,5R)-5-(4-aminopyrrolo[2,1-f][1,2,4]triazin-7-yl)-5-cyano-3,4-dihydroxytetrahydrofuran-2-yl)methyl ((R)-2-((4-cyano-2-fluorobenzyl)oxy)-3-(((E)-octadec-9-en-1-yl)oxy)propyl) hydrogen phosphate]
- EC50 ([1]; read-out: RSV EC50, Table 4): 28 nM
- EC50 [2]: 140 nM
- CC50 ([3]; MT4 CC50, Table 4): 3910 nM

SMILES: CCCCCCCCCCCCCCCCCCOC[C@H](COP(=O)(O)OC[C@H]1O[C@@](C#N)(c2ccc3c(N)ncnn23)[C@H](O)[C@@H]1O)Oc1cnc(C#N)cn1 [Example 77, ((2R,3S,4R,5R)-5-(4-aminopyrrolo[2,1-f][1,2,4]triazin-7-yl)-5-cyano-3,4-dihydroxytetrahydrofuran-2-yl)methyl ((R)-2-((5-cyanopyrazin-2-yl)oxy)-3-(octadecyloxy)propyl) hydrogen phosphate]
- EC50 ([1]; read-out: RSV EC50, Table 4): 7 nM
- EC50 [2]: 31 nM
- CC50 ([3]; MT4 CC50, Table 4): 196 nM

SMILES: CCCCCCCCCCCCCCCCCCOC[C@H](COP(=O)(O)OC[C@H]1O[C@@](C#N)(c2ccc3c(N)ncnn23)[C@H](O)[C@@H]1O)OCc1ccsc1 [Example 20, ((2R,3S,4R,5R)-5-(4-aminopyrrolo[2,1-f][1,2,4]triazin-7-yl)-5-cyano-3,4-dihydroxytetrahydrofuran-2-yl)methyl ((R)-3-(octadecyloxy)-2-(thiophen-3-ylmethoxy)propyl) hydrogen phosphate]
- EC50 [1, 4]: 76 nM
- EC50 ([1]; read-out: RSV EC50, Table 2a): 76 nM
- EC50 [2]: 264 nM
- CC50 ([3]; MT4 CC50, Table 2a): 13200 nM

SMILES: CCCCCCCCCCCCCCCCCCOC[C@H](COP(=O)(O)OC[C@H]1O[C@@](C#N)(c2ccc3c(N)ncnn23)[C@H](O)[C@@H]1O)OC(C)C [Example 47, ((2R,3S,4R,5R)-5-(4-aminopyrrolo[2,1-f][1,2,4]triazin-7-yl)-5-cyano-3,4-dihydroxytetrahydrofuran-2-yl)methyl ((R)-2-isopropoxy-3-(octadecyloxy)propyl) hydrogen phosphate]
- EC50 [1, 4]: 300 nM
- EC50 ([1]; read-out: RSV EC50, Table 2a): 297 nM
- EC50 [2]: 1080 nM
- CC50 ([3]; MT4 CC50, Table 2a): 7870 nM
